The record followed here is US8188121B2, “Substituted pyridines as antiparasitic AZA teraryl compounds” (The University of North Carolina at Chapel Hill, priority 2005, dated 2012).

The test system of one data set is L-6 rat mycoblast cells. Description: cells. The protocol: (§1) In vitro antiprotozoal activities were measured following established protocols. See Ismail, M. A., et al., J. Med. Chem., 46, 4761-4769 (2003); Stephens, C. E., et al., Bioorg. Med. Chem. Lett., 13, 2065-2069 (2003) (in vitro assay against Leishmania donovani).
(§2) Testing methods are as described above in Example 17.

Data set [1] has as its system Plasmodium falciparum (P. f.). Kind of data set: In vitro antiprotozoal activity against P. f. In kind it is cell-based. The protocol:
as §1, §2

For data set [2], the system named is Leishmania donovani (L. d.). Description: In vitro antiprotozoal activity against L. d. In kind it is cell-based. To be noted: read-out: L. d. IC50. The method, then: as §1, §2
The subject of data set [3] is STIB 900 strain of Trypanosoma brucei rhodesiense. Kind of data set: T. b. r. STIB 900 mouse model. To be noted: for responders at 20 mg/kg: Trypanosoma brucei, 1440 h, read-out: Cures (converted). In kind it is in vivo. The method, then:
The activities of compounds 20, 18, 21, 48, 23c, 24c, 5, 4, and 10 against the STIB 900 strain of Trypanosoma brucei rhodesiense (T. b. r.) in a mouse model are shown in Table 3. […] Groups of four mice were infected intraperitoneally with 2×10^5 bloodstream forms of T. b. r. STIB 900 which originates from a patient in Tanzania. On days 3, 4, 5, and 6 post-infection the experimental groups were treated with the indicated compound, either by the intraperitoneal route, or for prodrugs, by the oral route. Usually the highest tolerated dose was used. The highest tolerated dose was determined in a pretoxicological experiment.
Parasitemia of the mice was checked daily up to day 14 post-infection and thereafter 2 times per week up to day 60. One group of mice was not treated and acted as control. Untreated control animals expire between day 7 and 8 post-infection. For relapsing mice, the day of death was recorded and the survival time determined. For the data shown in Table 3, cures reflect the number of mice that survive and are parasite free for 60 days. Survival reflects the average days of survival.
as §2

Data set [4] has as its system Trypanosoma brucei rhodesiense (T. b. r.). Kind of data set: In vitro antiprotozoal activity against T. b. r. In kind it is cell-based. The protocol: as §1, §2
For a further data set, the system named is DNA minor groove. Description: ΔTm of linear triaryl dications (DNA minor groove binding). To be noted: Table 1.
[5] abbreviates: Rattus norvegicus, L6, read-out: CT IC50.
Where [6] appears, read: Plasmodium falciparum, Table 1, k/K = thousand.
[7] abbreviates: 20 mg/kg ip, days 3-6 post-infection, average days of survival.
Where [8] appears, read: 20 mg/kg ip, days 3-6 post-infection, mice surviving parasite free for 60 days, groups of four.
Setting [9] is: Trypanosoma brucei, RHODESIENSE, Table 1, k/K = thousand, read-out: T. b. r. IC50.
Setting [10] is: read-out: CT IC50, Table 1, L-6 cells.
Where [11] appears, read: Table 1, k/K = thousand, read-out: T. b. r. IC50.
The mark [12] stands for this setting: Rattus norvegicus, L6, read-out: CT IC50, Table 4, L-6 cells.

Where a name gives a salt, the structure may show the parent alone. Read-outs that look alike come from different tables or passages of the source. Some results are limits rather than exact numbers.

By melting point is commonly meant the temperature, or range, at which the solid turns liquid. On to `CC(=O)O.N=C(N)c1ccc(-c2ccc(-c3ccc(C(=N)N)o3)cc2)o1`, for which the melting point lay in the range of 228 to 230 °C.

`CONC(=N)c1ccc(-c2cnc(-c3ccc(C(=N)NOC)cc3)nc2)cc1` (as salt: hydrochloride) [Compound 29, 2,5-Bis-[4′-(N-methoxyamidino)phenyl]-pyrimidine] gave a melting point of 217 to 218 °C.

`N=C(NO)c1ccc(-c2ccc(-c3ccc(C(=N)NO)o3)cn2)cc1` [Compound 9, N-Hydroxy-5-{6-[4-(N-hydroxyamidino)-phenyl]-pyridin-3-yl}-furan-2-carboxamidine] registered a melting point of 194 to 195 °C.

One may read the IC50 as the point on the concentration scale where inhibition reaches its midpoint. Take `CC(=O)O.N=C(N)c1ccc(-c2ccc(-c3ccc(C(=N)N)o3)cn2)cc1` [Compound 10, 5-[6-(4-Amidinophenyl)-pyridin-3-yl]-furan-2-carboxamidine acetate salt]: the IC50 was found to be 30900 nM in the data set on L-6 rat mycoblast cells (setting [5]); 5.2 nM in data set [1] (setting [6]); 20500 nM in data set [2] (Leishmania donovani, Table 1); 2 nM in data set [4] (setting [9]). The compound also had a Survival in data set [3] (setting [7]) of more than 53.5 days. In addition, in data set [3] (setting [8]), the responders at 20 mg/kg was 75%.

Turning to `N=C(NO)c1ccc(-c2ccc(-c3ccc(C(=N)NO)o3)cc2)o1` [Compound 13, N-Hydroxy-5-{4-[5-(N-hydroxyamidino)-furan-2-yl]-phenyl}-furan-2-carboxamidine], the melting point was more than 300 °C.

In general, ΔTm refers to the shift of the melting midpoint relative to a reference. As for `CC(=O)O.N=C(N)c1ccc(-c2ccc(-c3ccc(C(=N)N)cc3)cc2)cc1` [Compound 20, [1,1′;4′,1″]Terphenyl-4,4″-bis-carboxamidine acetate salt], the results for the IC50 (in the data set with L-6 rat mycoblast cells (setting [5]); in data set [1] (setting [6]); in data set [4] (setting [9])) were 22100 nM, 1 nM and 5 nM, respectively. The Survival in data set [3] (setting [7]) amounted to 52.5 days. For the same compound, the responders at 20 mg/kg in data set [3] (setting [8]) was 0%. In addition, in the data set on DNA minor groove, the shift in melting temperature (ΔTm) turned out to be 19.1 °C.

For the compound `Cl.N=C(N)c1ccc(-c2ccc(-c3ccc(C(=N)N)cc3)c(F)c2)cc1` [Compound 23a, 2′-Fluoro-[1,1′;4′,1″]terphenyl-4,4″-bis-amidine hydrochloride salt], the IC50 in the data set with L-6 rat mycoblast cells (setting [5]) amounted to 6400 nM; in data set [1] (setting [6]), 1 nM; in data set [2] (Leishmania donovani, Table 1), 340 nM; in data set [4] (setting [9]), 2 nM. Besides, the thermal shift (ΔTm) with DNA minor groove was determined as 15.1 °C.

As to `N=C(NO)c1ccc(-c2ccc(-c3ccc(C(=N)NO)cc3)nc2)cc1` [Compound 24c, Phenyl[1,1′]pyridyl[4′,1″]phenyl-4,4″-bis-N-hydroxycarboxamidine], the half-inhibitory concentration (IC50) is more than 184000 nM in the data set on L-6 rat mycoblast cells (setting [10]); 7600 nM in data set [1] (Table 1, k/K = thousand); 9300 nM in data set [4] (setting [11]). The compound further yielded a Survival in data set [3] (100 mg/kg po, days 3-6 post-infection, average days of survival) of more than 35.75 days. In data set [3] (100 mg/kg po, days 3-6 post-infection, mice surviving parasite free for 60 days, groups of four), the Cures is 1/4.

Turning to `N=C(NO)c1ccc(-c2cnc(-c3ccc(C(=N)NO)cc3)nc2)cc1` [Compound 28, 2,5-Bis-[4′-(N-hydroxyamidino)phenyl]-pyrimidine], the melting point was in the range of 290 to 292 °C.

Consider `N=C(N)c1ccc(-c2ccc(-c3ccc(C(=N)N)cn3)cc2)nc1` [Compound 31, 1,4-Bis-(5′-amidinopyridin-2′-yl)-phenylene], for which the IC50 in data set [1] (Table 1, k/K = thousand) is 10 nM; in data set [2] (Table 1), more than 100000 nM; in data set [4] (setting [11]), 47 nM.

Take `N=C(N)c1ccc(-c2ccc(-c3ccc(C(=N)N)cc3)c3ccccc23)cc1` [Compound 38a, Phenyl[1,1]napthyl[4′,1″]phenyl-4,4″-bis-amidine]: the IC50 was 7300 nM in the data set with L-6 rat mycoblast cells; 21 nM in data set [1] (Table 2, K = thousand); 12900 nM in data set [2] (Table 2); 175 nM in data set [4] (Table 2, K = thousand, read-out: T. b. r. IC50).

In the case of `CC(C)N=C(N)Nc1ccc(-c2ccc(-c3ccc(NC(N)=NC(C)C)cc3)cc2)cc1` [Compound 51b, 4,4″-Bis(N′-isopropyl)-guanidino-[1,1′;4′,1″]terphenyl], the concentration for half-maximal inhibition (IC50) came to 21900 nM with L-6 rat mycoblast cells (setting [10]); 14 nM in data set [1] (Table 1, k/K = thousand); 7200 nM in data set [2] (Table 1); 530 nM in data set [4] (setting [11]).

Consider `Cl.NC(=NO)c1ccc(-c2ccc(-c3ccc(C(N)=NO)nc3)cc2)cn1` [Compound 67, 1,4-Bis-[2′-(N-hydroxyamidinopyridin-5′-yl)]-phenylene hydrochloride salt], for which the IC50 with L-6 rat mycoblast cells (setting [10]) was determined as 8100 nM; in data set [1] (Table 1, k/K = thousand) it was 2400 nM; in data set [4] (setting [11]), 12000 nM. For the same compound, the Cures in data set [3] (25 mg/kg po, Table 5) is listed as 0/4. Besides, the Survival in data set [3] (25 mg/kg po, Table 5) was 16.25 days.

Take `N=C(N)c1cnc(-c2ccc(-c3cnc(C(=N)N)cn3)cc2)cn1` [Compound 71, 1,4-Bis-(2′-amidinopyrazin-5′-yl)-phenylene hydrochloride salt]: the 50% inhibitory concentration (IC50) was 46500 nM in the data set on L-6 rat mycoblast cells (setting [12]); 5170 nM in data set [1] (Plasmodium falciparum, Table 4); 10000 nM in data set [2] (Leishmania donovani, Table 4).

On to `N=C(N)c1ncc(-c2ccc(-c3cnc(C(=N)N)nc3)cc2)cn1` [Compound 73, 1,4-Bis-(2′-amidinopyrimidin-5′yl)-phenylene hydrochloride salt], for which the 50% inhibitory concentration (IC50) in data set [2] (Leishmania donovani, Table 4) is 1720 nM.

As to `N=C(N)c1ccc(-c2cnc(-c3ccc(C(=N)N)cc3)cn2)cc1` [Compound 75, 2,5-Bis-(4′-amidinophenyl)-pyrazine hydrochloride salt], the concentration for half-maximal inhibition (IC50) turned out to be 42500 nM in the data set with L-6 rat mycoblast cells (setting [12]); 562 nM in data set [2] (Leishmania donovani); 18 nM in data set [4] (Trypanosoma brucei, RHODESIENSE, read-out: T. b. IC50).

With `N=C(N)c1ccc(-c2cnc(-c3ccc(C(=N)N)nc3)nc2)cn1` [Compound 77, 2,5-Bis-(2′-amidinopyridin-5′-yl)-pyrimidine hydrochloride salt], the IC50 in data set [2] (Leishmania donovani, Table 4) was found to be 1830 nM.

`N=C(N)c1ccc(-c2ccc(-c3ccc(C(=N)N)nc3)cc2)cc1` [Compound 80, Phenyl[1,1′]phenyl[4′,5″]pyridinyl-4,2″-bis-amidine hydrochloride salt]: the 50% inhibitory concentration (IC50) turned out to be 2800 nM with L-6 rat mycoblast cells (setting [12]) and 84 nM in data set [2] (Leishmania donovani, Table 4).

In the case of `N=C(N)c1ccc(-c2ccc(-c3ccc(C(=N)N)cn3)cc2)cc1` [Compound 83, Phenyl[1,1′]phenyl[4′,2″]pyridinyl-4,5″-bis-amidine hydrochloride salt], the IC50 with L-6 rat mycoblast cells (setting [12]) is 26700 nM; in data set [2] (Leishmania donovani, Table 4), 1370 nM.

Turning to `N=C(N)c1ccc(-c2ccc(-c3cnc(C(=N)N)nc3)cc2)cc1` [Compound 86, Phenyl[1,1′]phenyl[4′,5″]pyrimidinyl-4,2″-bis-amidine hydrochloride salt], the IC50 in data set [2] (Leishmania donovani, Table 4) was determined as 190 nM.

As to `N=C(N)c1ccc(-c2ccc(-c3ccc(C(=N)N)nc3)cn2)cc1` [Compound 89, Phenyl[1,2′]pyridinyl[5′,5″]pyridinyl-4,2″-bis-amidine hydrochloride salt], the half-inhibitory concentration (IC50) in the data set with L-6 rat mycoblast cells (setting [12]) is 19900 nM; in data set [1] (Plasmodium falciparum, Table 4), 1 nM; in data set [2] (Leishmania donovani, Table 4), 510 nM; in data set [4] (Trypanosoma brucei, RHODESIENSE, Table 4, read-out: T. b. IC50), 6 nM. In data set [3] (5 mg/kg ip, Table 5), the Cures is listed as 3/4. The Survival in data set [3] (5 mg/kg ip, Table 5) is listed as more than 60 days.

In the case of `CON=C(N)c1ccc(-c2ccc(-c3ccc(C(N)=NOC)nc3)cn2)cc1.Cl` [Compound 91, Phenyl[1,2′]pyridinyl[5′,5″]pyridinyl-4,2″-bis-N-methoxyamidine hydrochloride salt], the IC50 came out at 12800 nM in the data set with L-6 rat mycoblast cells (read-out: CT IC50, Table 4, L-6 cells); 2150 nM in data set [1] (Table 4); 1980 nM in data set [4] (Table 4, read-out: T. b. IC50). Further, the Cures in data set [3] (25 mg/kg ip, Table 5) is reported as 0/4. In data set [3] (25 mg/kg ip, Table 5), the Survival was 22.25 days.

For `N=C(N)c1ccc(-c2ccc(-c3ccc(C(=N)N)cn3)cn2)cc1` [Compound 94, Phenyl[1,2′]pyridinyl[5′,2″]pyridinyl-4,5″-bis-amidine hydrochloride salt], the 50% inhibitory concentration (IC50) in the data set on L-6 rat mycoblast cells (setting [12]) turned out to be 28300 nM; in data set [1] (Plasmodium falciparum, Table 4), 3 nM; in data set [2] (Leishmania donovani, Table 4), 6820 nM. In data set [3] (5 mg/kg ip, Table 5), this compound yielded a Survival of more than 60 days.

In the case of `N=C(N)c1ccc(-c2ccc(-c3cnc(C(=N)N)cn3)cn2)cc1` [Compound 97, Phenyl[1,2′]pyridinyl[5′,5″]pyrazinyl-4,2″-bis-amidine hydrochloride salt], the IC50 was found to be 93400 nM in the data set on L-6 rat mycoblast cells (setting [12]) and 15600 nM in data set [2] (Leishmania donovani, Table 4).

For the compound `N=C(N)c1ccc(-c2ccc(-c3cnc(C(=N)N)nc3)cn2)cc1` [Compound 100, Phenyl[1,2′]pyridinyl[5′,5″]pyrimidinyl-4,2″-bis-amidine hydrochloride salt], in data set [2] (Leishmania donovani, Table 4), the IC50 came to 2640 nM.
